The results in this text go back to patent US7045515B2, “β-lactam compounds process for reproducing the same and serum cholesterol-lowering agents containing the same” (Kotobuki Pharmaceutical Co., Ltd., priority 2001, dated 2006).

By melting point is commonly meant the temperature, or range, at which the solid turns liquid. With `CC(=O)OC[C@H]1O[C@@H](Cc2ccc([C@@H]3[C@@H](CCCc4ccc(F)cc4)C(=O)N3c3ccc(F)cc3)cc2)[C@H](OC(C)=O)[C@@H](OC(C)=O)[C@@H]1OC(C)=O` (relative stereo) [Compound 3, (3S,2R,4R,5R,6R)-2-[(4-{(4S*,3R*)-1-(4-Fluorophenyl)-3-[3-(4-fluorophenyl)propyl]-2-oxoazetidine-4-yl}phenyl)methyl]-4,5-diacetyloxy-6-(acetoxymethyl)perhydro-2H-pyran-3-ylacetate], the melting point was 56 to 58 °C. With `O=C1[C@H](CCCc2ccc(F)cc2)[C@@H](c2ccc(C[C@@H]3O[C@H](CO)[C@@H](O)[C@H](O)[C@H]3O)cc2)N1c1ccc(Cl)cc1` (relative stereo) [Compound 4, (4S*,3R*)-4-(4-{[(2S,5S,3R,4R,6R)-3,4,5-Trihydroxy-6-(hydroxymethyl)perhydro-2H-pyran-2-yl]methyl}phenyl)-1-(4-chlorophenyl)-3-[3-(4-fluorophenyl)propyl]azetidine-2-one], the melting point is 76 to 78 °C. The result for `COc1ccc(N2C(=O)[C@H](CCCc3ccc(F)cc3)[C@H]2c2ccc(CC3O[C@H](CO)[C@@H](O)[C@H](O)[C@H]3O)cc2)cc1` (relative stereo) [Compound 5, (4S*,3R*)-4-(4-{[(5S,2R,3R,4R,6R)-3,4,5-Trihydroxy-6-(hydroxymethyl)perhydro-2H-pyran-2-yl]methyl}phenyl)-1-(4-methoxyphenyl)-3-[3-(4-fluorophenyl)propyl]azetidine-2-one] reads 73 to 75 °C; that for `COc1ccc(N2C(=O)[C@H](CCCc3ccc(F)cc3)[C@H]2c2ccc(C[C@@H]3O[C@H](COC(C)=O)[C@@H](OC(C)=O)[C@H](OC(C)=O)[C@H]3OC(C)=O)cc2)cc1` (relative stereo) [Compound 6, (3S,2R,4R,5R,6R)-2-[(4-{(4S*,3R*)-1-(4-Methoxyphenyl)-3-[3-(4-fluorophenyl)propyl]-2-oxoazetidine-4-yl}phenyl)methyl]-4,5-diacetyloxy-6-(acetoxymethyl)perhydro-2H-pyran-3-ylacetate], 60 to 62 °C. The result for `Cc1ccc(N2C(=O)[C@H](CCCc3ccc(F)cc3)[C@H]2c2ccc(CC3O[C@H](CO)[C@@H](O)[C@H](O)[C@H]3O)cc2)cc1` (relative stereo) [Compound 7, (4S*,3R*)-4-(4-{[(5S,2R,3R,4R,6R)-3,4,5-Trihydroxy-6-(hydroxymethyl)perhydro-2H-pyran-2-yl]methyl}phenyl)-1-(4-methylphenyl)-3-[3-(4-fluorophenyl)propyl]azetidine-2-one] reads 80 to 82 °C. Under `CC(=O)OC[C@H]1O[C@@H](Cc2ccc([C@@H]3[C@@H](CCCc4ccc(F)cc4)C(=O)N3c3ccc(C)cc3)cc2)[C@H](OC(C)=O)[C@@H](OC(C)=O)[C@@H]1OC(C)=O` (relative stereo) [Compound 8, (3S,2R,4R,5R,6R)-2-[(4-{(4S*,3R*)-1-(4-Methylphenyl)-3-[3-(4-fluorophenyl)propyl]-2-oxoazetidine-4-yl}phenyl)methyl]-4,5-diacetyloxy-6-(acetoxymethyl)perhydro-2H-pyran-3-ylacetate] stands 56 to 58 °C. `O=C1[C@H](CCCc2ccc(F)cc2)[C@@H](c2ccc(CC3O[C@H](CO)[C@@H](O)[C@H](O)[C@H]3O)cc2)N1c1ccccc1` (relative stereo) [Compound 9, (4S*,3R*)-4-(4-{[(5S,2R,3R,4R,6R)-3,4,5-Trihydroxy-6-(hydroxymethyl)perhydro-2H-pyran-2-yl]methyl}phenyl)-1-phenyl-3-[3-(4-fluorophenyl)propyl]azetidine-2-one]: the melting point was in the range of 84 to 86 °C.
